# Assay results as given in article PMC7774954, “Interactomic affinity profiling by holdup assay: Acetylation and distal residues impact the PDZome-binding specificity of PTEN phosphatase” (PLoS ONE, 2020).
# *1 amine or outer side, *2 acyl side, *3 side chain or, on linkers, in order; H or OH if unused. Where a SMILES comes first, the peptide text is derived from it. The star is where a group is joined. X1 = O=C(CCCC[C@@H]1SC[C@@H]2NC(=O)N[C@@H]21)NCCCOCCOCCOCCCN*; Suc = O=C(CCC(=O)[*:2])[*:1]
# System: 266 human PDZ domains (PDZome)
# Assay: Holdup assay (chromatographic retention, PDZome-binding profile, BI)
# Set-up: key to maximal BI / Max BI / BI: binding intensity: 0.00 = no binding, 1.00 = maximal binding; Log(Kd): unit not given here
# Protocol: The holdup method is a chromatographic approach in solution developed in our group that allows to measure the binding strength of a peptide, attached to a resin, against a library of domains of a same family. We initially proposed this method to explore the interaction between PBM peptides and the human PDZ domains. Briefly, a soluble cell lysate containing individually overexpressed PDZ domain is incubated until equilibrium with a calibrated amount of streptavidin-resin saturated either with the target biotinylated PBM peptide or with biotin as a reference. The flow-throughs containing the unbound protein fraction are recovered by filtration and loaded on a capillary electrophoresis instrument to quantify the amount of remaining free PDZ. The stronger the steady-state depletion of the PDZ domain in the flow-through as compared to the reference, the stronger the PDZ/PBM binding interaction. The assay is particularly suited to quantitatively evaluate and compare large numbers of interactions. This method delivers, for each PBM/PDZ pair, a "binding intensity" (BI), whose value can in principle range from 0.00 (no binding event detected) to 1.00 (maximal binding event). The approach has been automated and the human PDZ library was recently extended to the complete 266 PDZ domains known in human proteome. […] The high accuracy and efficiency of the holdup assay have been validated previously. Very recently, a manual version of the holdup assay with purified samples and using widespread benchtop equipment has been implemented and has proven to be reliable.
# The 266 PDZ domains that constitute the PDZ library (“PDZome V.2”) used in the present work were produced using constructs with optimized boundaries as described previously. All the genes were fused to Maltose-Binding Protein (MBP) or Thioredoxin (THR) tag often used to facilitate the solubilisation of the over-expressed protein, by cloning them into the pETG41A or pETG20A plasmid, respectively. […] The expressed tag-PDZ concentrations were quantified using capillary gel electrophoresis and cell lysates were diluted to reach approximately 5 μM tag-PDZ before freezing in 96-well plates. A detailed protocol of the PDZ library production, expression and benchmarking can be found in [32]. PDZ domains are named according to their originating protein name followed by the PDZ number (e.g. NHERF1-1 as the first PDZ domain of the NHERF1 protein).
# The holdup assay was performed on a Tecan freedom Evo200 robot with 384-well plates in singlicate for the three 11-mer PTEN variants and the 13-mer PTEN peptide as described in [31, 32]. Briefly, prior to interaction assay, 2.5 μL of streptavidin resin was saturated in each well with 20 μL of biotinylated PBM peptides (42 μM) and then washed twice with an excess of free biotin, while the reference resin was incubated only with biotin. Right before the holdup experiment, the PDZ library was spiked with an internal standard of lysozyme. Then, the biotin- or PBM-saturated resin was incubated, each in a distinct well of a 384-well plate, with complete cell lysates diluted so that the concentration of the tag-PDZ present in the crude extract is adjusted at 4 μM. After a sufficient time to reach complex equilibrium (15 min.), a fast and mild filtration step is performed and the tag-PDZ concentrations were measured by capillary electrophoresis instrument (LabChip GXII, PerkinElmer, Massachusets, USA). Standard markers were used to convert migration time into molecular weight on the LabChip software and inappropriate molecular weight markers were corrected or excluded.
# Holdup data quality check and processing […]
# [1] = PDZ domain PARD3-1, first of two lines so named (r186)
smiles,measurement,setting,value
CC[C@H](C)[C@H](NC(=O)[C@H](CCC(N)=O)NC(=O)[C@@H](NC(=O)[C@H](Cc1c[nH]cn1)NC(=O)[C@H](CCC(N)=O)NC(=O)[C@H](CC(=O)O)NC(=O)[C@H](CCC(=O)O)NC(=O)[C@H](CC(=O)O)NC(=O)[C@H](Cc1ccccc1)NC(=O)[C@@H]1CCCN1C(=O)CCC(=O)NCCCOCCOCCOCCCNC(=O)CCCC[C@@H]1SC[C@@H]2NC(=O)N[C@@H]21)[C@@H](C)O)C(=O)N[C@H](C(=O)N[C@@H](CCCCN)C(=O)N[C@H](C(=O)O)C(C)C)[C@@H](C)O [PTEN_13] ({X1-Suc}-PFDEDQHTQITKV-OH),number of additional new PDZ partners not detected for PTEN_11,"BI>0.20, compared with PTEN_11",24
same,BI,PDZ domain MPDZ-2,0.095
same,BI,PDZ domain MPDZ-3,0.139
same,BI,PDZ domain MPDZ-4,0.035
same,BI,PDZ domain MPDZ-5,-0.002
same,BI,PDZ domain MPDZ-6,-0.029
same,BI,PDZ domain MPDZ-7,0.23
same,BI,PDZ domain MPDZ-8,0.039
same,BI,"PDZ domain MPDZ-9 (gene NHERF2, 2)",-0.021
same,BI,PDZ domain MPDZ-12,0.024
same,BI,PDZ domain MPDZ-13,0.225
same,BI,PDZ domain MPP1-1,-0.074
same,BI,PDZ domain MPP2-1,-0.014
same,BI,PDZ domain MPP3-1,-0.03
same,BI,PDZ domain MPP4-1,0
same,BI,PDZ domain MPP5-1,0.002
same,BI,PDZ domain MPP6-1,-0.068
same,BI,PDZ domain MPP7-1,-0.02
same,BI,PDZ domain NHERF1-2,0.132
same,BI,PDZ domain NHERF3-1,0.161
same,BI,PDZ domain NHERF3-2,0.06
same,BI,PDZ domain NHERF3-3,0.068
same,BI,PDZ domain NHERF3-4,-0.008
same,BI,PDZ domain NHERF4-1,0.09
same,BI,PDZ domain NHERF4-2,0.132
same,BI,PDZ domain NHERF4-3,0.208
same,BI,PDZ domain NHERF4-4,-0.036
same,BI,PDZ domain NOS1-1,0.002
same,BI,[1],0.146
same,Log(Kd),[1],4.018
same,BI,PDZ domain PARD3-2,-0.023
same,BI,PDZ domain PARD3B-1,-0.096
same,BI,PDZ domain PARD3B-2,0.088
same,BI,PDZ domain PARD3B-3,0.134
same,BI,PDZ domain PARD6A-1,-0.115
same,BI,PDZ domain PARD6G-1,-0.065
same,BI,PDZ domain PCLO-1,-0.006
same,BI,PDZ domain PDLIM1-1,-0.067
same,BI,PDZ domain PDLIM2-1,-0.078
same,BI,PDZ domain PDLIM3-1,0.139
same,BI,PDZ domain PDLIM4-1,0.003
same,BI,PDZ domain PDLIM5-1,-0.025
same,BI,PDZ domain PDLIM7-1,0.039
same,BI,PDZ domain PDZD2-1,-0.006
same,BI,PDZ domain PDZD2-2,0.054
same,BI,PDZ domain PDZD2-3,-0.045
same,BI,PDZ domain PDZD2-4,0.107
same,BI,PDZ domain PDZD2-5,0.195
same,BI,PDZ domain PDZD2-6,-0.066
same,BI,PDZ domain PDZD4-1,0.025
same,BI,PDZ domain PDZD7-1,-0.034
same,BI,PDZ domain PDZD7-2,-0.061
same,BI,PDZ domain PDZD7-3,0.811
same,BI,PDZ domain PDZD8-1,0.038
same,BI,PDZ domain PDZD9-1,0.075
same,BI,PDZ domain PDZD11-1,-0.022
same,BI,PDZ domain PDZRN3-1,0.024
same,BI,PDZ domain PDZRN3-2,0.032
same,BI,PDZ domain PDZRN4-1,-0.022
same,BI,PDZ domain PDZRN4-2,-0.019
same,BI,PDZ domain PICK1-1,0.089
same,BI,PDZ domain PPP1R9A-1,-0.068
same,BI,PDZ domain PPP1R9B-1,-0.064
same,BI,PDZ domain PREX1-1,-0.02
same,BI,PDZ domain PREX1-2,0.087
same,BI,PDZ domain PREX2-1,0.032
same,BI,PDZ domain PREX2-2,-0.046
same,BI,PDZ domain PRX-1,-0.006
same,BI,PDZ domain PSCDBP-1,0.094
same,BI,PDZ domain PSMD9-1,0.022
same,BI,PDZ domain PTPN3-1,0.015
same,BI,PDZ domain PTPN4-1,0.026
same,BI,PDZ domain PTPN13-1,0.009
same,BI,PDZ domain PTPN13-3,-0.036
same,BI,PDZ domain PTPN13-5,0.022
same,BI,PDZ domain RADIL-1,0.092
same,BI,PDZ domain RAPGEF2-1,-0.023
same,BI,PDZ domain RAPGEF6-1,-0.02
same,BI,PDZ domain RGS3-1,0.249
same,BI,PDZ domain RGS12-1,0.04
same,BI,PDZ domain RHPN1-1,0.479
same,BI,PDZ domain RHPN2-1,0.033
same,BI,PDZ domain RIMS1-1,-0.009
same,BI,PDZ domain RIMS2-1,-0.031
same,BI,PDZ domain SCRIB-1,0.173
same,BI,PDZ domain SCRIB-2,-0.031
same,BI,PDZ domain SCRIB-4,-0.007
same,BI,PDZ domain SDCBP2-1,0.022
same,BI,PDZ domain SDCBP2-2,-0.007
same,BI,PDZ domain SDCBP-2,-0.032
same,BI,PDZ domain SHROOM2-1,-0.059
same,BI,PDZ domain SHROOM3-1,-0.047
same,BI,PDZ domain SHROOM4-1,-0.086
same,BI,PDZ domain SIPA1-1,-0.045
same,BI,PDZ domain SIPA1L1-1,0.023
same,BI,PDZ domain SIPA1L2-1,-0.04
same,BI,PDZ domain SIPA1L3-1,-0.026
same,BI,PDZ domain SNTA1-1,0.142
same,BI,PDZ domain SNTB1-1,0.224
same,BI,PDZ domain SNTG1-1,0.14
same,BI,PDZ domain SNTG2-1,0.015
same,number of PDZ domains identified as potential binders (BI>0.20),"holdup, singlicate, threshold BI>0.20",24 PDZ domains
same,maximal BI,"holdup, singlicate, highest BI in the PDZome profile, BI standard error ~0.07",0.81
same,effect on PDZ binding profile (in words),"holdup/FP profile, compared with PTEN_11",markedly stronger compared to the affinities observed for the same PDZ partners in PTEN_11
same,Max BI,maximum over PDZome,0.88
